Data from patent publication US9284283B2, “Macrocyclic compounds for modulating IL-17” (ENSEMBLE THERAPEUTICS CORPORATION, priority 2012, dated 2016).
Where two headings read alike, the source gives them in different places.

Columns and labels:
[1] = system: IL-17A induced secretion of IL-6 in primary human RASF cells; assay: Inhibition of IL17A induced secretion of IL6 in human rheumatoid arthritis synovial fibroblast (RASF) cells; type: cell-based
Method: This assay was used to determine the extent of inhibition of IL-17A induced secretion of IL-6 in primary human rheumatoid synovial fibroblast (RASF) cells by compounds of the invention. IL-17A is known to stimulate IL-6 production in RASF cells.
Low passage (passage 2-8) Primary human RASF cells (Asterand) were maintained in maintenance medium. Cells were detached from flasks by tryptic digestion and the cell density of the suspension determined. To each well of a 96 well culture plate was added 100 μL of seeding medium containing 50,000 cells/mL and the plate incubated overnight in a humidified 37° C., 5% CO2 incubator. The medium was replaced with fresh assay medium and cells were incubated for additional 5 hours in a humidified 37° C., 5% CO2 incubator prior to stimulation with recombinant human IL-17A (“rhIL-17A”). Prior to addition to cells, rhIL-17A (30 ng/mL) in assay medium was incubated with either DMSO alone, compounds, or anti-IL17 receptor antibody (3 μg/mL) for 1 hour at 37° C. The final concentration of DMSO in all samples was 0.25%. The final concentration of compounds varied from 0.03 μM to 25 μM.
Immediately before stimulation, cells were washed once with fresh assay medium. Then, 100 μL of the test samples was added in triplicate wells and the plates incubated for 20 hours in a humidified 37° C., 5% CO2 incubator. The assay medium from each well was collected and the IL-6 concentration in cell culture supernatants was determined by ELISA either immediately or after storage at −20° C.
A water-soluble tetrazolium salt (WST1) viability assay was immediately performed on the cells after the conditioned medium was collected using a WST1 reagent purchased from Roche. The concentration of IL-6 obtained from ELISA was normalized by the WST1 data.

[2] = biological target: T1, recombinant human IL17a (binding to its receptor IL17R) (Homo sapiens, UniProt Q16552); assay: IL-17 competition ELISA I (IL17a coated, IL17R/Fc binding)
T1 construct: purchased R&D Systems 317-ILB (IL17a); 177-IR (IL17R/Fc)
T1 sequence (Q16552 20-155 limits assumed): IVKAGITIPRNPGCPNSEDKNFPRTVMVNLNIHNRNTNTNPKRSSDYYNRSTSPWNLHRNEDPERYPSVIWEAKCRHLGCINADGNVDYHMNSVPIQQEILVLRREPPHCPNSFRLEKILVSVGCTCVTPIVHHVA
Procedure, shortened: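 Plates coated with 20 nM recombinant human IL17a received compound dilutions and 12 nM IL17R/Fc (final) for 30 min at room temperature. Bound receptor was detected with HRP anti-human Fc and TMB, read at 450 nm. IC50 came from a 4-parameter logistic fit between no-competitor and blank controls.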

[3] = biological target: T2, biotinylated human IL-17 (binding to IL17R/Fc) (Homo sapiens, UniProt Q16552); assay: IL-17 competition ELISA II (captured IL17R/Fc, biotinylated IL-17)
T2 construct: purchased R&D Systems 317-ILB (IL-17, biotinylated); 177-IR (IL17R/Fc)
T2 sequence (Q16552 20-155 limits assumed): T1 sequence (Q16552 20-155 limits assumed)
Procedure, shortened: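 Anti-human IgG-coated plates captured IL17R/Fc (10 nM), then compound (5-fold dilutions from 1 μM) and biotinylated human IL-17 (20 nM stock) were added for 30 min at room temperature in PBST. Bound IL-17 detected by streptavidin-HRP/TMB at 450 nm. IC50 from 4-parameter logistic fit between no-competitor and blank controls.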

Row | SMILES | IC50 [2] | IC50 [3] | IC50 ([1]; Homo sapiens, Fibroblast) | IC50 [1]
1 | O=C1CC2(CCCC2)CC(=O)N[C@H](Cc2ccc(NC(=O)[C@H](Cc3ccccc3Cl)NC(=O)Cc3ccccc3)cc2)C(=O)N[C@H](Cc2ccccc2)C(=O)NCCCCCN1 [Compound 261] | < 100 nM |  | 1000 to 10000 nM | 
2 | CN(C)c1ccc(CC(=O)N[C@@H](Cc2ccccc2Cl)C(=O)Nc2ccc(C[C@H]3NC(=O)CC4(CCCC4)CC(=O)NCCOCCOCCNC3=O)cc2)cc1 [Compound 553] |  | < 100 nM | 100 to 1000 nM | 
3 | Cc1ccc(CC(=O)N[C@@H](Cc2ccccc2Cl)C(=O)Nc2ccc(C[C@H]3NC(=O)CC4(CCCC4)CC(=O)NCCOCCOCCNC3=O)cc2)cc1 [Compound 494] |  | < 100 nM | 100 to 1000 nM | 
4 | O=C1CC2(CCCC2)CC(=O)N[C@H](Cc2ccc(NC(=O)[C@H](Cc3ccccc3Cl)NC(=O)c3ccccc3)cc2)C(=O)NCCOCCOCCN1 [Compound 522] |  | < 100 nM | 1000 to 10000 nM | 
5 | C[C@H]1NC(=O)[C@@H](Cc2ccc(NC(=O)[C@@H](NC(=O)Cc3ccc(N(C)C)cc3)C3CCCCC3)cc2)NC(=O)CC2(CCCC2)CC(=O)N(C)CCCCCN(C)C1=O [Compound 601] |  | < 100 nM | 1000 to 10000 nM | 
6 | CN1CCOCCOCCNC(=O)[C@@H](Cc2ccc(NC(=O)[C@H](Cc3ccccc3Cl)NC(=O)Cc3ccc(N(C)C)cc3)cc2)NC(=O)CC2(CCCC2)CC1=O [Compound 582] |  | < 100 nM | 1000 to 10000 nM | 
7 | C[C@H]1NC(=O)[C@@H](Cc2ccc(NC(=O)[C@H](Cc3ccccc3Cl)NC(=O)C(F)(F)c3ccccc3)cc2)NC(=O)CC2(CCC2)CC(=O)NCCCCCNC1=O [Compound 536] |  | < 100 nM | 100 to 1000 nM | 
8 | C[C@H]1NC(=O)[C@@H](Cc2ccc(NC(=O)[C@H](Cc3ccccc3Cl)NC(=O)C(=O)c3ccccc3)cc2)NC(=O)CC2(CCCC2)CC(=O)NCCCCCNC1=O [Compound 549] |  | < 100 nM | < 100 nM | 
9 | Cc1ccccc1CC(=O)N[C@@H](Cc1ccccc1Cl)C(=O)Nc1ccc(C[C@H]2NC(=O)CC3(CCCC3)CC(=O)NCCOCCOCCNC2=O)cc1 [Compound 495] |  | < 100 nM | 1000 to 10000 nM | 
10 | O=C1CC2(CCCC2)CC(=O)N[C@H](Cc2ccc(NC(=O)[C@H](Cc3ccccc3Cl)NC(=O)Cc3ccc(F)cc3)cc2)C(=O)NCC#CCCCCN1 [Compound 497] |  | < 100 nM | 1000 to 10000 nM | 
11 | CC1NC(=O)C(Cc2ccc(NC(=O)C(Cc3ccccc3Cl)NC(=O)C(F)(F)c3ccccc3)cc2)NC(=O)CC2(CCCC2)CC(=O)N(C)CCCCCN(C)C1=O (stereo not shown) [Compound 566] |  | < 100 nM |  | 100 to 1000 nM
12 | C[C@H]1NC(=O)[C@@H](Cc2ccc(NC(=O)[C@H](Cc3ccccc3Cl)NC(=O)C(F)(F)c3ccc(F)cc3)cc2)NC(=O)CC2(CCCC2)CC(=O)NCCCCCNC1=O [Compound 560] |  | < 100 nM | < 100 nM | 
13 | CN(CCOc1ccc(CC(=O)N[C@@H](Cc2ccccc2Cl)C(=O)Nc2ccc(C[C@H]3NC(=O)CC4(CCCC4)CC(=O)NCCCCCNC(=O)[C@@H](Cc4ccccc4)NC3=O)cc2)cc1)Cc1ccccc1 [Compound 438] |  | < 100 nM | 100 to 1000 nM | 
14 | NC(=O)CC[C@H]1NC(=O)[C@@H](Cc2ccc(NC(=O)[C@H](Cc3ccccc3Cl)NC(=O)Cc3ccc(F)cc3)cc2)NC(=O)CC2(CCCC2)CC(=O)NCCCCCNC1=O [Compound 479] |  | < 100 nM | < 100 nM | 
15 | O=C1CC2(CCCC2)CC(=O)N[C@H](Cc2ccc(NC(=O)[C@H](Cc3ccc(F)cc3Cl)NC(=O)Cc3ccc(F)cc3)cc2)C(=O)NCCOCCOCCN1 [Compound 502] |  | < 100 nM | 1000 to 10000 nM | 
16 | C[C@H]1NC(=O)[C@@H](Cc2ccc(NC(=O)[C@H](Cc3ccccc3C(F)(F)F)NC(=O)C3(c4ccc(F)cc4)CC3)cc2)NC(=O)CC2(CCCC2)CC(=O)N(C)CCCCCNC1=O [Compound 507] |  | < 100 nM | 1000 to 10000 nM | 
17 | CC(C)C[C@H]1NC(=O)[C@@H](Cc2ccc(NC(=O)[C@H](Cc3ccccc3Cl)NC(=O)Cc3ccc(CO)cc3)cc2)NC(=O)CC2(CCCC2)CC(=O)N[C@H](C(=O)O)CCCCNC1=O [Compound 660] |  | < 100 nM | < 100 nM | 
18 | O=C1CC2(CCCC2)CC(=O)N[C@H](Cc2ccc(NC(=O)[C@H](Cc3ccccc3Cl)NC(=O)OCc3ccccc3)cc2)C(=O)NCCOCCOCCN1 [Compound 484] |  | < 100 nM | 100 to 1000 nM | 
19 | C[C@H]1NC(=O)[C@@H](Cc2ccc(NC(=O)[C@H](Cc3ccccc3Cl)Nc3nc4ccccc4o3)cc2)NC(=O)CC2(CCCC2)CC(=O)NCCCCCNC1=O [Compound 555] |  | < 100 nM | < 100 nM | 

Second part, led by results:

Row | IC50 [2] | IC50 [3] | SMILES | IC50 ([1]; Homo sapiens, Fibroblast) | IC50 [1]
20 | 1000 to 10000 nM |  | COC(=O)[C@@H]1CCCCNC(=O)CNC(=O)[C@@H](Cc2ccc(NC(=O)[C@@H](NC(=O)c3cccnc3)C3CCCCC3)cc2)NC(=O)CC2(CCCC2)CC(=O)N1 [Compound 352] | > 10000 nM | 
21 | < 100 nM |  | O=C1CC2(CCCC2)CC(=O)N[C@H](Cc2ccc(NC(=O)[C@H](Cc3ccccc3Cl)NC(=O)Cc3ccc(O)cc3)cc2)C(=O)NCCCCCCCCN1 [Compound 263] | 1000 to 10000 nM | 
22 | < 100 nM |  | O=C1CNC(=O)[C@@H](Cc2ccc(NC(=O)[C@H](Cc3ccccc3Cl)NC(=O)CC3CCCCC3)cc2)NC(=O)CC2(CCCC2)CC(=O)NCCCCCN1 [Compound 236] | 1000 to 10000 nM | 
23 | 100 to 1000 nM |  | CC1(C)CC(=O)NCCCCCNC(=O)CNC(=O)[C@@H](Cc2ccc(NC(=O)[C@@H](NC(=O)Cc3ccc(O)cc3)C3CCCCC3)cc2)NC(=O)C1 [Compound 253] | 1000 to 10000 nM | 
24 | 1000 to 10000 nM |  | CC1(C)CC(=O)NCCCCCNC(=O)CNC(=O)[C@@H](Cc2ccc(NC(=O)[C@@H](NC(=O)c3cccnc3)C3CCCCC3)cc2)NC(=O)C1 [Compound 254] | > 10000 nM | 
25 | 100 to 1000 nM |  | CC1(C)CC(=O)NCCCCCNC(=O)CNC(=O)[C@@H](Cc2ccc(NC(=O)[C@@H](NC(=O)Cc3ccccc3)C3CCCCC3)cc2)NC(=O)C1 [Compound 251] | 1000 to 10000 nM | 
26 |  | < 100 nM | O=C1CNC(=O)[C@@H](Cc2ccc(NC(=O)[C@H](Cc3ccc(F)cc3Cl)NC(=O)Cc3ccccc3)cc2)NC(=O)CC2(CCCC2)CC(=O)NCCCCCN1 [Compound 386] | 1000 to 10000 nM | 
27 |  | < 100 nM | O=C1CC2(CCCC2)CC(=O)N[C@H](Cc2ccc(NC(=O)[C@@H](NC(=O)Cc3ccc(F)cc3)C3CCCCC3)cc2)C(=O)NCCOCCOCCN1 [Compound 424] | > 10000 nM | 
28 |  | 100 to 1000 nM | CN(C)CCOc1ccc(CC(=O)N[C@H](C(=O)Nc2ccc(C[C@H]3NC(=O)CC4(CCCC4)CC(=O)NCCCCCNC(=O)[C@@H](Cc4ccccc4)NC3=O)cc2)C2CCCCC2)cc1 [Compound 437] | 1000 to 10000 nM | 
29 |  | < 100 nM | C[C@H]1NC(=O)[C@@H](Cc2ccc(NC(=O)[C@H](Cc3ccccc3Cl)NC(=O)[C@@H](O)c3ccccc3)cc2)NC(=O)CC2(CCCC2)CC(=O)NCCCCCNC1=O [Compound 550] | 1000 to 10000 nM | 
30 |  | < 100 nM | O=C1CNC(=O)[C@@H](Cc2ccc(NC(=O)[C@H](Cc3ccc(F)cc3Cl)NC(=O)Cc3ccc(F)cc3)cc2)NC(=O)CC2(CCCC2)CC(=O)NCCCCCN1 [Compound 388] | < 100 nM | 
31 |  | < 100 nM | O=C1CNC(=O)[C@@H](Cc2ccc(NC(=O)[C@H](Cc3ccccc3Cl)NC(=O)Cc3ccc(NC(=O)CNCc4ccccc4)cc3)cc2)NC(=O)CC2(CCCC2)CC(=O)NCCCCCN1 [Compound 405] | 100 to 1000 nM | 
32 | < 100 nM |  | CN1CCNC(=O)CNC(=O)[C@@H](Cc2ccc(NC(=O)[C@H](Cc3ccccc3Cl)NC(=O)Cc3ccc(O)cc3)cc2)NC(=O)CC2(CCCC2)CC(=O)NCC1 [Compound 260] | 1000 to 10000 nM | 
33 |  | < 100 nM | Cc1ccccc1C[C@H](NC(=O)Cc1ccc(F)cc1)C(=O)Nc1ccc(C[C@H]2NC(=O)CC3(CCCC3)CC(=O)NCCCCCNC(=O)[C@@H](C)NC2=O)cc1 [Compound 476] | 100 to 1000 nM | 
34 |  | < 100 nM | C[C@H]1NC(=O)[C@@H](Cc2ccc(NC(=O)[C@H](Cc3ccccc3Cl)NC(=O)[C@H](O)c3ccccc3)cc2)NC(=O)CC2(CCCC2)CC(=O)NCCCCCNC1=O [Compound 551] | 1000 to 10000 nM | 
35 |  | < 100 nM | C[C@H]1NC(=O)[C@@H](Cc2ccc(NC(=O)[C@H](Cc3ccccc3Cl)NC(=O)Cc3ccc(CO)cc3)cc2)NC(=O)CC2(CCCC2)CC(=O)NCCCCCNC1=O [Compound 487] | < 100 nM | 
